These results are taken from PMC4609000 (Chembiochem : a European journal of chemical biology, 2015).

A short description of data set [1]: Stability of inhibitors under the assay conditions. Conditions: HEPES pH 8.0, 37 °C, HPLC analysis, data not shown.
The conditions of data set [2]: pH 8.
The target in data set [3] is T1, DXP synthase (Escherichia coli, UniProt P77488). Briefly: DXP synthase inhibition, continuous spectrophotometric IspC-coupled assay. Conditions: for mode of inhibition with respect to D-GAP / mode of inhibition with respect to pyruvate: model discrimination analysis (AIC). The class given is biochemical, E. coli.
In data set [4] the target is T1, DXP synthase. In words: Rapid dilution experiment. Conditions: pre-incubation 15 or 30 min. The data set is classed as biochemical, E. coli.
Data set [5] can be described thus: 13C NMR monitoring of oxime 8 at pH 8. The data set is classed as physicochemical. Conditions: pH 8, 24 hours.
The target in data set [6] is T1, DXP synthase. Briefly: DXP synthase inhibitory activity in the presence of BME or ascorbic acid. The data set is classed as biochemical, E. coli. Conditions: inhibitor 50 µM.
Data set [7] has as its target DXP synthase. Conditions: cited from earlier work.

Structures are written as SMILES. “Also recorded” adds a separate entry of the source. Where two headings read alike, the source gives them in different places.

T1 sequence (P77488 whole entry): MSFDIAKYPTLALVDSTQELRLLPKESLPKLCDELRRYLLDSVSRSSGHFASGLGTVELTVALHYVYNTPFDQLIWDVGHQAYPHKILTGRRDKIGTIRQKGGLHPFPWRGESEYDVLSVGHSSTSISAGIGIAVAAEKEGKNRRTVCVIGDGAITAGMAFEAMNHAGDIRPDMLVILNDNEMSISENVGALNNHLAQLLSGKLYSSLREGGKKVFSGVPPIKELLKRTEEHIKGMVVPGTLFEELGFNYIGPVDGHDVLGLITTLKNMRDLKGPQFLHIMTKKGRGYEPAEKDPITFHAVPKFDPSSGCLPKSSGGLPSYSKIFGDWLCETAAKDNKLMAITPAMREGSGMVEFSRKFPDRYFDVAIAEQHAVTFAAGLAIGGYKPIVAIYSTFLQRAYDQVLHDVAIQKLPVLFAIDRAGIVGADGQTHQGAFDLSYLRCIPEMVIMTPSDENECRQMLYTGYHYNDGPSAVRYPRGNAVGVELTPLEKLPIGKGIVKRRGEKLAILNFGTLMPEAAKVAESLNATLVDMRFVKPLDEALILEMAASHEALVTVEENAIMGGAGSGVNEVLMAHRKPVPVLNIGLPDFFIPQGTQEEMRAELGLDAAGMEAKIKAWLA

With `CN/N=C/c1cc(O)c(O)cc1O` [Compound 11, (E)-5-((2-Methylhydrazono)methyl)benzene-1,2,4-triol], the “stability under the conditions of the assay” value (shortened to “stability under the conditions”) in data set [1] was “unstable”.
Regarding `O=Cc1cc(O)c(O)cc1O` [Compound 6, 2,4,5-trihydroxybenzaldehyde], the “stability under the conditions” value in data set [2] is reported as “unstable”.
Consider `CO/N=C/c1cc(O)c(O)c(O)c1` [Compound 17, (E)-3,4,5-Trihydroxybenzaldehyde O-methyl oxime], for which, in data set [3], the “mode of inhibition with respect to D-GAP” value is given as “competitive”.
Turning to `CO/N=C/c1cc(O)c(O)cc1F` [Compound 22, (E)-2-Fluoro-4,5-dihydroxybenzaldehyde O-methyl oxime], the “mode of inhibition with respect to D-GAP” value in data set [3] is recorded as “competitive”. In addition, the “stability under the conditions” value in data set [2] is “unstable”.
Take `CO/N=C/c1cc(O)c(O)cc1O` [Compound 8, (E)-2,4,5-Trihydroxybenzaldehyde O-methyl oxime]: in data set [4], the “time dependence of inhibitory activity” value is reported as “not time-dependent”. In addition, in data set [3], the “mode of inhibition with respect to pyruvate” value is “noncompetitive”. Moreover, the “quinone species observed by 13C NMR” value in data set [5] was “no observable quinone species”. Also, in data set [6] (BME 0.5 mM), the “inhibitory activity in the presence of BME” value is given as “abolished; also recorded: abolishes inhibitory activity”. In data set [6] (ascorbic acid 2.0 mM), the “inhibitory activity in the presence of ascorbic acid” value is “does not abolish inhibitory activity”.
As for `CO/N=C/c1cc(F)c(F)cc1O` [Compound 23, (E)-4,5-Difluoro-2-hydroxybenzaldehyde O-methyl oxime], the “inhibitory activity” value in data set [3] (up to 100 µM) is listed as “minimally active”.
For the compound `O/N=C/c1cc(O)c(O)cc1O` [Compound 7, (E)-2,4,5-Trihydroxybenzaldehyde oxime], in data set [3], the “mode of inhibition with respect to D-GAP” value is “competitive” and the “mode of inhibition with respect to pyruvate” value is recorded as “uncompetitive”.
On the same counts, the results for `Oc1cc(O)c(/C=N/OCCO/N=C/c2cc(O)c(O)cc2O)cc1O` [Compound 5, (1E,1'E)-O,O'-(Ethane-1,2-diyl)bis(1-(2,4,5-trihydroxyphenyl)-2,4,5-trihydroxybenzaldehyde oxime)] are “competitive” and “uncompetitive”.
In the case of `CC1(C)C(=O)ON(Cc2ccccc2Cl)C1=O` [Ketoclomazone], in data set [7], the Ki is 75 µM, the “mode of inhibition against D-GAP” value was “noncompetitive” and the “mode of inhibition with respect to pyruvate” value is reported as “uncompetitive”.
In data set [3], `CO/N=C/c1cc(O)c(O)c(OC)c1` [Compound 18, (E)-3,4-Dihydroxy-5-methoxybenzaldehyde O-methyl oxime] showed an inhibition at 200 µM of 18%.
Regarding `CCCCOP(=O)(O)C(C)=O` [Butyl Acetyl Phosphonate], in data set [7], the inhibition constant (Ki) is 5.6 ± 0.8 µM.
`CONCc1cc(O)c(O)cc1O.Cl` [Compound 10, 5-((Methoxyamino)methyl)benzene-1,2,4-triol hydrochloride]: in data set [1], the “stability under the conditions” value is “unstable”. In data set [3] (evaluated in the presence of ascorbic acid (2.0 mM)), the inhibition constant Ki was greater than 75 µM.
Take `O=C([O-])/C=N/OCCO/N=C/c1cc(O)c(O)cc1O.[Na+]` [Compound 4, Sodium (1E,7E)-1-(2,4,5-trihydroxyphenyl)-3,6-dioxa-2,7-diazanona-1,7-dien-9-oate]: in data set [3], the “mode of inhibition with respect to D-GAP” value was “competitive” and the “mode of inhibition with respect to pyruvate” value is reported as “noncompetitive”.
Consider `Oc1cc(O)c(/C=N/OCc2ccccc2)cc1O` [Compound 9, (E)-2,4,5-Trihydroxybenzaldehyde O-benzyl oxime], for which the “mode of inhibition with respect to pyruvate” value in data set [3] is listed as “noncompetitive”.
Regarding `CO/N=C/c1cccc([N+](=O)[O-])c1O` [Compound 21, (E)-2-Hydroxy-3-nitrobenzaldehyde O-methyl oxime], in data set [3], the affinity corresponds to a Ki of 47.8 ± 8.4 µM and the “mode of inhibition with respect to D-GAP” value is recorded as “competitive”.
